#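 Values below derive from 48-hour exposures of cells grown in 96-well plates, with endpoints linearly interpolated between the two concentrations bracketing the appropriate inhibition level. Abbreviation: GI50, concentration required for 50% inhibition of growth. At the TGI there is no net growth.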
# Columns and labels:
# Assay in all cases: DTP human tumour cell line panel, 48 h
# ACHN renal = test system: ACHN renal
# SNB-75 CNS = test system: SNB-75 CNS
# K-562 leukemia = test system: K-562 leukemia
# SN12C renal = test system: SN12C renal
# UACC-257 melanoma = test system: UACC-257 melanoma
# OVCAR-5 ovarian = test system: OVCAR-5 ovarian
# HCT-116 colon = test system: HCT-116 colon
# BT-549 breast = test system: BT-549 breast
# SK-MEL-5 melanoma = test system: SK-MEL-5 melanoma
# EKVX NSCLC = test system: EKVX NSCLC
# MOLT-4 leukemia = test system: MOLT-4 leukemia
# UACC-62 melanoma = test system: UACC-62 melanoma
# NCI-H23 lung = test system: NCI-H23 lung
# HCT-15 colon = test system: HCT-15 colon
# NCI-H460 lung = test system: NCI-H460 lung
# LOX IMVI melanoma = test system: LOX IMVI melanoma
# SK-MEL-28 melanoma = test system: SK-MEL-28 melanoma
# SW-620 colon = test system: SW-620 colon
# OVCAR-8 ovarian = test system: OVCAR-8 ovarian
# TK-10 renal = test system: TK-10 renal
# HL-60(TB) leukemia = test system: HL-60(TB) leukemia
# 786-0 renal = test system: 786-0 renal
# RPMI-8226 leukemia = test system: RPMI-8226 leukemia
# UO-31 renal = test system: UO-31 renal
# RXF 393 renal = test system: RXF 393 renal
# OVCAR-3 ovarian = test system: OVCAR-3 ovarian
# U251 CNS = test system: U251 CNS
# COLO 205 colon = test system: COLO 205 colon
# HT29 colon = test system: HT29 colon
# HOP-62 NSCLC = test system: HOP-62 NSCLC
# PC-3 prostate = test system: PC-3 prostate
# NCI/ADR-RES ovarian = test system: NCI/ADR-RES ovarian
# CAKI-1 renal = test system: CAKI-1 renal
# MCF7 breast = test system: MCF7 breast
# SF-268 CNS = test system: SF-268 CNS
# KM12 colon = test system: KM12 colon
# IGROV1 ovarian = test system: IGROV1 ovarian
# NCI-H522 lung = test system: NCI-H522 lung
# NCI-H226 lung = test system: NCI-H226 lung
# A549 NSCLC = test system: A549 NSCLC
# SR leukemia = test system: SR leukemia
# HS 578T breast = test system: HS 578T breast
# SK-MEL-2 melanoma = test system: SK-MEL-2 melanoma
# SF-539 CNS = test system: SF-539 CNS
# SNB-19 CNS = test system: SNB-19 CNS
# CCRF-CEM leukemia = test system: CCRF-CEM leukemia
# SF-295 CNS = test system: SF-295 CNS
# MDA-MB-435 = test system: MDA-MB-435
# MDA-MB-231 breast = test system: MDA-MB-231 breast
# DU-145 prostate = test system: DU-145 prostate
compound,measurement,setting,value
CN(c1ccc(C(=O)O)cc1)c1cc(O/N=[N+](\[O-])N(C)C)c([N+](=O)[O-])cc1[N+](=O)[O-],GI50,ACHN renal,3.8 µM
same,TGI,ACHN renal,14.1 µM
same,GI50,SNB-75 CNS,25.6 µM
same,TGI,SNB-75 CNS,55.6 µM
same,GI50,K-562 leukemia,6.99 µM
same,TGI,K-562 leukemia,> 100 µM
same,GI50,SN12C renal,12.2 µM
same,TGI,SN12C renal,25.3 µM
same,GI50,UACC-257 melanoma,21 µM
same,TGI,UACC-257 melanoma,40.6 µM
same,GI50,OVCAR-5 ovarian,10.8 µM
same,TGI,OVCAR-5 ovarian,72.5 µM
same,GI50,HCT-116 colon,2.72 µM
same,TGI,HCT-116 colon,10.4 µM
same,GI50,BT-549 breast,17.4 µM
same,TGI,BT-549 breast,32.6 µM
same,GI50,SK-MEL-5 melanoma,19.1 µM
same,TGI,SK-MEL-5 melanoma,38.7 µM
same,GI50,EKVX NSCLC,18.2 µM
same,TGI,EKVX NSCLC,36.2 µM
same,GI50,MOLT-4 leukemia,12.1 µM
same,TGI,MOLT-4 leukemia,> 100 µM
same,GI50,UACC-62 melanoma,7.29 µM
same,TGI,UACC-62 melanoma,19.8 µM
same,GI50,NCI-H23 lung,4.83 µM
same,TGI,NCI-H23 lung,29.2 µM
same,GI50,HCT-15 colon,2.03 µM
same,TGI,HCT-15 colon,5.3 µM
same,GI50,NCI-H460 lung,18.9 µM
same,TGI,NCI-H460 lung,> 100 µM
same,GI50,LOX IMVI melanoma,1.86 µM
same,TGI,LOX IMVI melanoma,4.33 µM
same,GI50,SK-MEL-28 melanoma,21 µM
same,TGI,SK-MEL-28 melanoma,57.1 µM
same,GI50,SW-620 colon,3.64 µM
same,TGI,SW-620 colon,> 100 µM
same,GI50,OVCAR-8 ovarian,22.3 µM
same,TGI,OVCAR-8 ovarian,54.5 µM
same,GI50,TK-10 renal,13.9 µM
same,TGI,TK-10 renal,26.9 µM
same,GI50,HL-60(TB) leukemia,2.84 µM
same,TGI,HL-60(TB) leukemia,27.4 µM
same,GI50,786-0 renal,3.25 µM
same,TGI,786-0 renal,14.6 µM
same,GI50,RPMI-8226 leukemia,2.79 µM
same,TGI,RPMI-8226 leukemia,18 µM
same,GI50,UO-31 renal,32.1 µM
same,TGI,UO-31 renal,> 100 µM
same,GI50,RXF 393 renal,17.1 µM
same,TGI,RXF 393 renal,33.8 µM
same,GI50,OVCAR-3 ovarian,2.62 µM
same,TGI,OVCAR-3 ovarian,6.92 µM
same,GI50,U251 CNS,3.69 µM
same,TGI,U251 CNS,14.1 µM
same,GI50,COLO 205 colon,8.78 µM
same,TGI,COLO 205 colon,> 100 µM
same,GI50,HT29 colon,23 µM
same,TGI,HT29 colon,> 100 µM
same,GI50,HOP-62 NSCLC,14.5 µM
same,TGI,HOP-62 NSCLC,31.3 µM
same,GI50,PC-3 prostate,17.5 µM
same,TGI,PC-3 prostate,38.1 µM
same,GI50,NCI/ADR-RES ovarian,3.35 µM
same,TGI,NCI/ADR-RES ovarian,17.2 µM
same,GI50,CAKI-1 renal,1.79 µM
same,TGI,CAKI-1 renal,4 µM
same,GI50,MCF7 breast,6.8 µM
same,TGI,MCF7 breast,54.8 µM
same,GI50,SF-268 CNS,13.1 µM
same,TGI,SF-268 CNS,36.3 µM
same,GI50,KM12 colon,10.9 µM
same,TGI,KM12 colon,23.9 µM
same,GI50,IGROV1 ovarian,5.48 µM
same,TGI,IGROV1 ovarian,24.5 µM
same,GI50,NCI-H522 lung,15.1 µM
same,TGI,NCI-H522 lung,> 100 µM
same,GI50,NCI-H226 lung,11.3 µM
same,TGI,NCI-H226 lung,29 µM
same,GI50,A549 NSCLC,23.5 µM
same,TGI,A549 NSCLC,63.7 µM
same,GI50,SR leukemia,19.8 µM
same,TGI,SR leukemia,> 100 µM
same,GI50,HS 578T breast,21.5 µM
same,TGI,HS 578T breast,61.3 µM
same,GI50,SK-MEL-2 melanoma,14.9 µM
same,TGI,SK-MEL-2 melanoma,39.6 µM
same,GI50,SF-539 CNS,16.6 µM
same,TGI,SF-539 CNS,35.8 µM
same,GI50,SNB-19 CNS,14.6 µM
same,TGI,SNB-19 CNS,40.7 µM
same,GI50,CCRF-CEM leukemia,> 100 µM
same,TGI,CCRF-CEM leukemia,> 100 µM
same,GI50,SF-295 CNS,12.6 µM
same,TGI,SF-295 CNS,27 µM
same,GI50,MDA-MB-435,4.84 µM
same,TGI,MDA-MB-435,19.9 µM
same,GI50,MDA-MB-231 breast,3.71 µM
same,TGI,MDA-MB-231 breast,12.2 µM
same,GI50,DU-145 prostate,17.1 µM
same,TGI,DU-145 prostate,33.5 µM

# Source: PubChem BioAssay (NCI)
